Results reported in publication PMC10788917 (Journal of Medicinal Chemistry, 2023).
Where a chain is given by its changes, count along the chain named.

Tests used:
Test in all cases: HDAC8 mutant biochemical assay
[1] = molecular target: T1, HDAC8 Cys102Ser/Cys153Ser/Cys131Ser (Homo sapiens, UniProt Q9BY41, C102S/C131S/C153S); conditions: read-out: IC50 [μM] @ 100 nM HDAC8: D Cys102Ser/Cys153Ser/Cys131Ser, 1 h preincubation
T1 construct: made in house
T1 sequence (Q9BY41 1-377 C102S/C131S/C153S): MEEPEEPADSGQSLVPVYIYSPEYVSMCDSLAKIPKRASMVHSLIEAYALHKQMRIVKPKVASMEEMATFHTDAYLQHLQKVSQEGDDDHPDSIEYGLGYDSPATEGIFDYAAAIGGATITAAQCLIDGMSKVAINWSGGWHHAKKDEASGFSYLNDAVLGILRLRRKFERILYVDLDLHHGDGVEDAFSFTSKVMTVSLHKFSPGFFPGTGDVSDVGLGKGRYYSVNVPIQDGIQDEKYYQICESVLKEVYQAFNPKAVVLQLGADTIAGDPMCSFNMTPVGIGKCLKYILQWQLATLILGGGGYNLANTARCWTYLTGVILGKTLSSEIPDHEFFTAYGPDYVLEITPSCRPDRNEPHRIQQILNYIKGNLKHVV
Experimental: (§1) HDAC8 mutant variants were generated, produced, and further purified as described previously.[32] Cysteines 28 and 314 were exchanged with serine using the following primer pairs: HD8_C28S_for, […]; HD8_C28S_rev, […]; HD8_C314S_for, […]; HD8_C314S_rev, […].
(§2) The enzyme activity assay was performed in assay buffer [25 mM Tris-HCl (pH 8.0), 50 mM NaCl, and 0.001% (v/v) Pluronic F-68] in black half-area 96-well microplates (Greiner Bio-One). For the initial screening, 10 nM HDAC8 was preincubated with the indicated compounds at 250 μM for 2 h at 30 °C. […] The reaction was initiated by the addition of 20 μM Boc-Lys(TFA)-AMC (Bachem). After substrate conversion at 30 °C for 15 min for HDAC8 and 1 h for HDAC8 mutants and HDAC4, the reaction was stopped by adding 1.67 μM suberoylanilide trifluoromethylketone (SATFMK). The deacetylated substrate was cleaved with 0.42 mg/mL trypsin to release fluorescent 7-amino-4-methylcoumarin (AMC), which was detected with a microplate reader (PHERAstar FS […]) with fluorescence excitation at 360 nm and emission at 460 nm. IC50 values were calculated by generating dose–response curves in GraphPad Prism 6 and fitting those to a four-parameter logistic model.

[2] = molecular target: T2, HDAC8 Cys102Ser/Cys153Ser/Cys244Ser (Homo sapiens, UniProt Q9BY41, C102S/C153S/C244S); conditions: read-out: IC50 [μM] @ 100 nM HDAC8: E Cys102Ser/Cys153Ser/Cys244Ser, 1 h preincubation
T2 construct: made in house
T2 sequence (Q9BY41 1-377 C102S/C153S/C244S): T1 sequence (Q9BY41 1-377 C102S/C131S/C153S) with S131C, C244S
Experimental: as §1, §2

[3] = molecular target: T3, HDAC8 Cys102Ser/Cys153Ser/Cys287Ser (Homo sapiens, UniProt Q9BY41, C102S/C153S/C287S); conditions: read-out: IC50 [μM] @ 100 nM HDAC8: G Cys102Ser/Cys153Ser/Cys287Ser, 1 h preincubation
T3 construct: made in house
T3 sequence (Q9BY41 1-377 C102S/C153S/C287S): T1 sequence (Q9BY41 1-377 C102S/C131S/C153S) with S131C, C287S
Experimental: as §1, §2

[4] = molecular target: T4, HDAC8 Cys102Ser/Cys153Ser/Cys352Ser (Homo sapiens, UniProt Q9BY41, C102S/C153S/C352S); conditions: read-out: IC50 [μM] @ 100 nM HDAC8: I Cys102Ser/Cys153Ser/Cys352Ser, 1 h preincubation
T4 construct: made in house
T4 sequence (Q9BY41 1-377 C102S/C153S/C352S): T1 sequence (Q9BY41 1-377 C102S/C131S/C153S) with S131C, C352S
Experimental: as §1, §2

IC50 [1] [µM]	IC50 [2] [µM]	IC50 [3] [µM]	IC50 [4] [µM]	Compound
8 ± 1	40 ± 6	51 ± 7	11 ± 1	C[n+]1cccnc1I [D3+]
42 ± 4	> 130	> 130	36 ± 2	C[n+]1ccccc1I [A3+]
93 ± 13	> 130	> 130	118 ± 13	C#Cc1nccc[n+]1C [D6+]
55 ± 12	100 ± 12	73 ± 6	59 ± 3	C#Cc1c[n+](C)ccn1 [G6+]
18 ± 4	> 130	> 130	15 ± 2	C[n+]1cccnc1Br [D2+]
49 ± 6	> 130	> 130	41 ± 7	C[n+]1cccnc1Cl [D1+]

Further lines, the compound ahead of its results:

Compound	IC50 [1] [µM]	IC50 [2] [µM]	IC50 [3] [µM]	IC50 [4] [µM]
C[n+]1cncc(I)c1 [F3+]	15	26 ± 4	> 130	29 ± 6
C[n+]1cncc(Br)c1 [F2+]	25 ± 2	87 ± 7	95 ± 8	15 ± 1
C[n+]1ccc(I)cc1 [C3+]	36 ± 8	> 130	> 130	29 ± 2
C#Cc1cc[n+](C)cc1 [C6+]	3.3 ± 0.3	24 ± 3	34 ± 2	9 ± 1
